ChEMBL document CHEMBL5678818, “Discovery of potent SOS1 inhibitors that block RAS activation via disruption of the RAS-SOS1 interaction” (Proc Natl Acad Sci U S A, 2019)

Columns and labels:
[1] = tested on: Tyrosine-protein kinase ABL1 (Homo sapiens), P00519 [M351T]; assay: Inhibition of phosphorylated ABL1 M351T mutant (unknown origin) assessed as residual activity at 100 nM by KINOMEscan analysis relative to control
[2] = biological target: T1, Serine/threonine-protein kinase Chk1 (Homo sapiens) (UniProt O14757); assay: Inhibition of CHEK1 (unknown origin) assessed as residual activity at 100 nM by KINOMEscan analysis relative to control
T1 sequence (whole entry): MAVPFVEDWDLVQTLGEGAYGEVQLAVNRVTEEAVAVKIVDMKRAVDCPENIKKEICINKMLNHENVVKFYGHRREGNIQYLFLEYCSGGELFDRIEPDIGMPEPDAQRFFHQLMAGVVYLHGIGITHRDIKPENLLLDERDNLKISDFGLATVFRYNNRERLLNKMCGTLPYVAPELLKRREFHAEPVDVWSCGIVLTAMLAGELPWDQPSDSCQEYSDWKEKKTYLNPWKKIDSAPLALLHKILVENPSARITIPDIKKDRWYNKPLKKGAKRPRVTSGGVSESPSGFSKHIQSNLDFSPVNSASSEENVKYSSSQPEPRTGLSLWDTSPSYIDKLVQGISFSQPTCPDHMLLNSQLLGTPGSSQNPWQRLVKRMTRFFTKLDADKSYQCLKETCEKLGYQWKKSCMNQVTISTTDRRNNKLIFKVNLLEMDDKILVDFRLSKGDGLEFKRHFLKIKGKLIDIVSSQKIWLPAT

[3] = biological target: T2, Cyclin-G-associated kinase (Homo sapiens) (UniProt O14976); assay: Inhibition of GAK (unknown origin) assessed as residual activity at 100 nM by KINOMEscan analysis relative to control
T2 sequence (whole entry): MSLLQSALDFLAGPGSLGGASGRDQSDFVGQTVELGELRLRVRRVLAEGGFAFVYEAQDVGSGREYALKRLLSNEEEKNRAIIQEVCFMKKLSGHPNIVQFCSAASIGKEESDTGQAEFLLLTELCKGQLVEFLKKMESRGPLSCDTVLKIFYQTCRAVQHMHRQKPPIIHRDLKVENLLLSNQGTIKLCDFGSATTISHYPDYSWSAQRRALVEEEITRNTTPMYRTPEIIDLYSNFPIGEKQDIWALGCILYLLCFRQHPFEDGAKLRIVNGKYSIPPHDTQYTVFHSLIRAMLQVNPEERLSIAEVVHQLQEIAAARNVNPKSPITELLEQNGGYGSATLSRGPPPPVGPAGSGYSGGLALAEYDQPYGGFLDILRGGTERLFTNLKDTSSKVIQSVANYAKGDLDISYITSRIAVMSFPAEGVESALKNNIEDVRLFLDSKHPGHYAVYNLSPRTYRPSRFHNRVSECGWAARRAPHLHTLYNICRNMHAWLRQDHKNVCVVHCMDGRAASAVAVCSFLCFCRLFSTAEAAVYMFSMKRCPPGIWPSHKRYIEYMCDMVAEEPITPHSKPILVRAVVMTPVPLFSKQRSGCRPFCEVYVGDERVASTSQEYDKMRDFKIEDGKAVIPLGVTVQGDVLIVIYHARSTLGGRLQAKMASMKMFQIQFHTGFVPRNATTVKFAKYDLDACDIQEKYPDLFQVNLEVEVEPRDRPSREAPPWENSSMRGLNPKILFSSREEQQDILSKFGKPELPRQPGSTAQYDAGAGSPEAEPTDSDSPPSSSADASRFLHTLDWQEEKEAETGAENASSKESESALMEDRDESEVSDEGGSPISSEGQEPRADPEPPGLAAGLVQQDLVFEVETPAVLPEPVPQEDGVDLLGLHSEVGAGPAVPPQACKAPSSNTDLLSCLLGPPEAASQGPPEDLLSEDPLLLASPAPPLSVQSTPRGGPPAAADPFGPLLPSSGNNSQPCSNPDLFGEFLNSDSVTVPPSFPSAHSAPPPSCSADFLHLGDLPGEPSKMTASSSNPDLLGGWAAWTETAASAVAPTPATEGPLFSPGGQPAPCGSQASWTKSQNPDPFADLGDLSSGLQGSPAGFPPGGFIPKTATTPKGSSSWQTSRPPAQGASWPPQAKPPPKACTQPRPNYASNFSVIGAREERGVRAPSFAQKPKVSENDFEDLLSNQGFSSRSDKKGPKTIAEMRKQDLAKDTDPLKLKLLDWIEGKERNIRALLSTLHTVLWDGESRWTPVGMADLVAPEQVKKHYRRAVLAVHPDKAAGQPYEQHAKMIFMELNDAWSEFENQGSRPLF

[4] = biological target: Serine/threonine-protein kinase 26 (Homo sapiens) (UniProt Q9P289); assay: Inhibition of MST4 (unknown origin) assessed as residual activity at 100 nM by KINOMEscan analysis relative to control
Chain of Serine/threonine-protein kinase 26 (Homo sapiens) (Q9P289 2-416 limits assumed): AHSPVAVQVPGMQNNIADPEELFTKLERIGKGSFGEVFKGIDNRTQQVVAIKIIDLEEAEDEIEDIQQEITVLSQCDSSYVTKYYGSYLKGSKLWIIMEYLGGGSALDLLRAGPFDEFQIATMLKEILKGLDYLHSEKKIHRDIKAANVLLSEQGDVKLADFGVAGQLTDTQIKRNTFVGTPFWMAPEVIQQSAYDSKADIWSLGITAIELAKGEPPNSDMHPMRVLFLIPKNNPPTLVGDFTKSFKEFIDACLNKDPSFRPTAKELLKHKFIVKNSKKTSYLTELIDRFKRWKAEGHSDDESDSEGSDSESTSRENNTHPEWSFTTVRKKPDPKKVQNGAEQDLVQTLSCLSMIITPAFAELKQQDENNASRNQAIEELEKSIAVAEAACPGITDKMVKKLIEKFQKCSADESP

[5] = biological target: T3, Serine/threonine-protein kinase ULK2 (Homo sapiens) (UniProt Q8IYT8); assay: Inhibition of ULK2 (unknown origin) assessed as residual activity at 100 nM by KINOMEscan analysis relative to control
T3 sequence (whole entry): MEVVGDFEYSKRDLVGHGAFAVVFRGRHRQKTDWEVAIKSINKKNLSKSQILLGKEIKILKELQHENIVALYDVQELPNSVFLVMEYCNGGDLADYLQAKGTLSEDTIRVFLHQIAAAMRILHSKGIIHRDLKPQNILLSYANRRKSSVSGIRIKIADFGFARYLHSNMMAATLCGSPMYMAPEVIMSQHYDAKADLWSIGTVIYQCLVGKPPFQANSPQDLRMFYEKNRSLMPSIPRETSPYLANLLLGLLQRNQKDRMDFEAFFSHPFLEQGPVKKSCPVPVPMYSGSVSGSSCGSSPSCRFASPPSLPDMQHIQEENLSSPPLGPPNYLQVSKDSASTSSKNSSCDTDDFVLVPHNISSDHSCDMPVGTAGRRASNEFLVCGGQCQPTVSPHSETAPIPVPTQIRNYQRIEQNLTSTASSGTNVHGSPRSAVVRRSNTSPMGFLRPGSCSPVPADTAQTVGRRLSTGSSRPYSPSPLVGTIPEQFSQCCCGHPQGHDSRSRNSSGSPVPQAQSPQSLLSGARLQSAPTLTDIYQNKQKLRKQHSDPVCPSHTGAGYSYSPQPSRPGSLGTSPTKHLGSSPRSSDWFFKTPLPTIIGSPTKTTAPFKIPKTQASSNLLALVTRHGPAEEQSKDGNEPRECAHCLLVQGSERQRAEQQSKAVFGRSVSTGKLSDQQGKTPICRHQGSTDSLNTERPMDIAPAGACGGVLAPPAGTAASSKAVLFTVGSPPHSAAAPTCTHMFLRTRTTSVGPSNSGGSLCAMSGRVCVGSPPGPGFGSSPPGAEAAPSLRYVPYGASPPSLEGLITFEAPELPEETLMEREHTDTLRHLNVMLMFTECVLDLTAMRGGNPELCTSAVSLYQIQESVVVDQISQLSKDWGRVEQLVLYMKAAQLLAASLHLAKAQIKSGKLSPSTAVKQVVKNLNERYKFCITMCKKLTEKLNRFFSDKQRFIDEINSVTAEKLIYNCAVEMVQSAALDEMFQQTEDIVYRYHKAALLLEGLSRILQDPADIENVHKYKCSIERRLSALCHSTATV

Structure (SMILES): COc1cc2ncnc(N[C@H](C)c3cccc4ccccc34)c2cc1OC
- Activity [1]: 100%
- Activity [2]: 100%
- Activity [3]: 100%
- Activity [4]: 88%
- Activity [5]: 100%
